Measurements published in patent US20220104495A1, “THEOPHYLLINE DERIVATIVES WITH NEMATOCIDAL ACTIVITY, THEIR AGRONOMIC COMPOSITIONS AND RELATIVE USE” (ISAGRO S.p.A., priority 2019, published 2022).

System: Meloidogyne sp.
Experiment: Determination of the nematocidal activity against Meloidogyne sp. (potted tomato, greenhouse)
Format: in vivo
Conditions: for PLANT DEVELOPMENT (fresh weight g) / INFESTED ROOT % / GALL INDEX (scale 0-10) / reduction in parasitosis at the root level (in words): tomatoes, cv Marmande; for PLANT DEVELOPMENT (fresh weight g) / INFESTED ROOT % / GALL INDEX (scale 0-10): dose 4,000 g/hectare, survey 30 days after transplantation; for PLANT DEVELOPMENT (fresh weight g): infested blank 13; for INFESTED ROOT %: infested blank 70; for GALL INDEX (scale 0-10): Bridge-Page scale, 0 = 0% of root affected, 10 = 100% infested root, infested blank 7; for reduction in parasitosis at the root level (in words): 4,000 g/hectare, 30 days, comment on Table 6
Procedure: The tests aimed at testing the nematocidal activity of the product under examination are carried out using inocula taken from a cultivation of Meloidogyne sp. maintained on potted tomato and cucumber plants and grown in a greenhouse.
In order to carry out the experiments, portions of roots having a large number of galls and soil are taken from the infested pots, in which larvae are present starting from the second stage of age.
New pots having a diameter of 15 cm are half-filled with sterile earth. The portions of infested roots, previously cleaned, are placed on it to be able to correctly assess the degree of infestation and ensure that each pot contains the same nematic charge. 200-300 g of infested soil are then added, which are covered with a thin layer of sterile earth.
The treatment is carried out by pouring 100 ml of hydroacetonic solution onto the surface of the soil in which the product to be tested has been dissolved to obtain a concentration ranging from 70 to 100 ppm.
Tomato or cucumber seedlings at the stage of two or three actual leaves are transplanted in the pots thus prepared, after one or seven days from the application. Different cultivars of tomatoes (Microtom, Marmande) or cucumbers (Lungo della Cina) are used, having a different sensitivity to the parasite and different times of growth. In particular, for estimating the final production, a variety of ornamental tomatoes (cv Microtom) is used, whose seedlings are small in size and able to reach the maturity of the fruit in about two months in pots and under greenhouse conditions.
The containment capacity of the parasite is detected, 30 and 60 days after the transplantation, considering the development of the plant (whose fresh weight is detected) and the presence of galls on the roots.
This is estimated using both the infestation scale proposed by Bridge-Page (Tropical Pest Management 26 (3): 296-298, September 1980), according to which the value zero corresponds to 0% of root affected and the value 10 corresponds to 100% of infested root, and also considering the percentage of root mass affected.
Table 6 indicates the results relating to the effectiveness of Compounds Nr.

| Compound | nematocidal activity of caffeine as verified by the Applicant (in words) (attack of the parasite and formation of galls on the root system, conditions not given) | PLANT DEVELOPMENT (fresh weight g) [g] | INFESTED ROOT % [%] | GALL INDEX (scale 0-10) | reduction in parasitosis at the root level (in words) |
| --- | --- | --- | --- | --- | --- |
| Cn1c(=O)c2c(ncn2C)n(C)c1=O [Caffeine, caffeine, reference compound] | unsatisfactory from the point of view of nematocidal activity | 12 | 70 | – | – |
| Cn1c(=O)c2c(ncn2CC[S+]([O-])CCC(F)=C(F)F)n(C)c1=O (centres unmarked) [Comp. Nr. 8, 1,3-dimethyl-7-[2-(3,4,4-trifluorobut-3-ene-1-sulfinyl)ethyl]-3,7-dihydro-1H-purin-2,6-dione] | – | 17 | 50 | 5 | – |
| Cn1c(=O)c2c(ncn2CCS(=O)(=O)CCC(F)=C(F)F)n(C)c1=O [Comp. Nr. 11, 1,3-dimethyl-7-[2-(3,4,4-trifluorobut-3-ene-1-sulfonyl)ethyl]-3,7-dihydro-1H-purin-2,6-dione] | – | 16 | 45 | 4.5 | decisive reduction in parasitosis at the root level |
| Cn1c(=O)c2c(ncn2CC(=O)OCCC(F)=C(F)F)n(C)c1=O [Comp. Nr. 21, 3,4,4-trifluorobut-3-en-1-yl (1,3-dimethyl-2,6-dioxo-1,2,3,6-tetrahydro-7H-purin-7-yl) acetate] | – | 20 | 20 | 2 | decisive reduction in parasitosis at the root level |
